17 molecules from the NIST ThermoML archive (doi:10.1016/j.fluid.2005.04.021) can be followed below.

The structures appear in SMILES notation. Numbers after ± are expanded uncertainties.

The series is described as follows: activity coefficient (dimensionless); of the first substance listed, at infinite dilution; xn = mol fraction of the nth substance listed. The following applies: Liquid, x1 = 0.

`C#CCCCC` [1-hexyne] + CCCCCCCCCCCCCC[P+](CCCCCC)(CCCCCC)CCCCCC.FC(F)(F)C(F)(F)[P-](F)(F)(F)(C(F)(F)C(F)(F)F)C(F)(F)C(F)(F)F: the activity coefficient runs as follows: (308.15 K) 0.42 ± 0.05; (318.15 K) 0.42 ± 0.05; (328.15 K) 0.41 ± 0.05.

In the case of `c1ccccc1` [benzene] + CCCCCCCCCCCCCC[P+](CCCCCC)(CCCCCC)CCCCCC.FC(F)(F)C(F)(F)[P-](F)(F)(F)(C(F)(F)C(F)(F)F)C(F)(F)C(F)(F)F, the activity coefficient is, setting by setting: (308.15 K) 0.2 ± 0.06; (318.15 K) 0.19 ± 0.06; (328.15 K) 0.19 ± 0.06.

Regarding `C1CCCCCC1` [cycloheptane] + CCCCCCCCCCCCCC[P+](CCCCCC)(CCCCCC)CCCCCC.FC(F)(F)C(F)(F)[P-](F)(F)(F)(C(F)(F)C(F)(F)F)C(F)(F)C(F)(F)F, the activity coefficient is, setting by setting: (308.15 K) 0.54 ± 0.06; (318.15 K) 0.52 ± 0.06; (328.15 K) 0.49 ± 0.06.

In the case of `C#CCCCCC` [1-heptyne] + CCCCCCCCCCCCCC[P+](CCCCCC)(CCCCCC)CCCCCC.FC(F)(F)C(F)(F)[P-](F)(F)(F)(C(F)(F)C(F)(F)F)C(F)(F)C(F)(F)F, the activity coefficient is 0.46 ± 0.05 (308.15 K), 0.46 ± 0.05 (318.15 K) and 0.45 ± 0.05 (328.15 K).

`C1CCCC1` [cyclopentane] + CCCCCCCCCCCCCC[P+](CCCCCC)(CCCCCC)CCCCCC.FC(F)(F)C(F)(F)[P-](F)(F)(F)(C(F)(F)C(F)(F)F)C(F)(F)C(F)(F)F: the activity coefficient stood at 0.42 ± 0.05 (308.15 K), 0.42 ± 0.05 (318.15 K) and 0.41 ± 0.05 (328.15 K).

As for `C=CCCCCC` [1-heptene] + CCCCCCCCCCCCCC[P+](CCCCCC)(CCCCCC)CCCCCC.FC(F)(F)C(F)(F)[P-](F)(F)(F)(C(F)(F)C(F)(F)F)C(F)(F)C(F)(F)F, the activity coefficient is 0.59 ± 0.06 (308.15 K), 0.58 ± 0.06 (318.15 K) and 0.57 ± 0.06 (328.15 K).

For the molecule `CO` [methanol] + CCCCCCCCCCCCCC[P+](CCCCCC)(CCCCCC)CCCCCC.FC(F)(F)C(F)(F)[P-](F)(F)(F)(C(F)(F)C(F)(F)F)C(F)(F)C(F)(F)F, the activity coefficient runs as follows: (308.15 K) 1.23 ± 0.09; (318.15 K) 1.14 ± 0.08; (328.15 K) 1.01 ± 0.07.

For the molecule `CCCCCC` [hexane] + CCCCCCCCCCCCCC[P+](CCCCCC)(CCCCCC)CCCCCC.FC(F)(F)C(F)(F)[P-](F)(F)(F)(C(F)(F)C(F)(F)F)C(F)(F)C(F)(F)F, the activity coefficient reads like this: (308.15 K) 0.66 ± 0.06; (318.15 K) 0.64 ± 0.06; (328.15 K) 0.62 ± 0.06.

In the case of `CCCCCCCC` [octane] + CCCCCCCCCCCCCC[P+](CCCCCC)(CCCCCC)CCCCCC.FC(F)(F)C(F)(F)[P-](F)(F)(F)(C(F)(F)C(F)(F)F)C(F)(F)C(F)(F)F, the activity coefficient (308.15 K) amounted to 0.84 ± 0.06, the activity coefficient (318.15 K) amounted to 0.8 ± 0.06 and the activity coefficient (328.15 K) is 0.77 ± 0.06.

Turning to `CCCO` [propan-1-ol] + CCCCCCCCCCCCCC[P+](CCCCCC)(CCCCCC)CCCCCC.FC(F)(F)C(F)(F)[P-](F)(F)(F)(C(F)(F)C(F)(F)F)C(F)(F)C(F)(F)F, the activity coefficient (308.15 K) was 1.16 ± 0.09, the activity coefficient (318.15 K) turned out to be 1 ± 0.07 and the activity coefficient (328.15 K) worked out at 0.87 ± 0.06.

With `CCCCCCC` [heptane] + CCCCCCCCCCCCCC[P+](CCCCCC)(CCCCCC)CCCCCC.FC(F)(F)C(F)(F)[P-](F)(F)(F)(C(F)(F)C(F)(F)F)C(F)(F)C(F)(F)F, the activity coefficient runs as follows: (308.15 K) 0.74 ± 0.06; (318.15 K) 0.72 ± 0.06; (328.15 K) 0.7 ± 0.06.

As to `C1CCCCC1` [cyclohexane] + CCCCCCCCCCCCCC[P+](CCCCCC)(CCCCCC)CCCCCC.FC(F)(F)C(F)(F)[P-](F)(F)(F)(C(F)(F)C(F)(F)F)C(F)(F)C(F)(F)F, the activity coefficient amounted to 0.49 ± 0.06 (308.15 K), 0.48 ± 0.05 (318.15 K) and 0.44 ± 0.05 (328.15 K).

As to `C=CCCCC` [hex-1-ene] + CCCCCCCCCCCCCC[P+](CCCCCC)(CCCCCC)CCCCCC.FC(F)(F)C(F)(F)[P-](F)(F)(F)(C(F)(F)C(F)(F)F)C(F)(F)C(F)(F)F, the activity coefficient is, setting by setting: (308.15 K) 0.53 ± 0.06; (318.15 K) 0.53 ± 0.06; (328.15 K) 0.52 ± 0.06.

Turning to `CCO` [ethanol] + CCCCCCCCCCCCCC[P+](CCCCCC)(CCCCCC)CCCCCC.FC(F)(F)C(F)(F)[P-](F)(F)(F)(C(F)(F)C(F)(F)F)C(F)(F)C(F)(F)F, the activity coefficient (308.15 K) was 1.2 ± 0.09, the activity coefficient (318.15 K) was 1.07 ± 0.08 and the activity coefficient (328.15 K) came out at 0.93 ± 0.07.

For `C=CCCCCCC` [oct-1-ene] + CCCCCCCCCCCCCC[P+](CCCCCC)(CCCCCC)CCCCCC.FC(F)(F)C(F)(F)[P-](F)(F)(F)(C(F)(F)C(F)(F)F)C(F)(F)C(F)(F)F, the activity coefficient (308.15 K) came out at 0.67 ± 0.06, the activity coefficient (318.15 K) was 0.65 ± 0.06 and the activity coefficient (328.15 K) came to 0.64 ± 0.06.

With `CCCCC` [pentane] + CCCCCCCCCCCCCC[P+](CCCCCC)(CCCCCC)CCCCCC.FC(F)(F)C(F)(F)[P-](F)(F)(F)(C(F)(F)C(F)(F)F)C(F)(F)C(F)(F)F, the activity coefficient runs as follows: (308.15 K) 0.61 ± 0.06; (318.15 K) 0.6 ± 0.06; (328.15 K) 0.59 ± 0.06.

`C#CCCCCCC` [1-octyne] + CCCCCCCCCCCCCC[P+](CCCCCC)(CCCCCC)CCCCCC.FC(F)(F)C(F)(F)[P-](F)(F)(F)(C(F)(F)C(F)(F)F)C(F)(F)C(F)(F)F: the activity coefficient by setting is: (308.15 K) 0.57 ± 0.06; (318.15 K) 0.52 ± 0.06; (328.15 K) 0.51 ± 0.06.
